What was measured:
[1] = system: Phakopsora pachyrhizi (F129L); assay: Protective control of soybean rust on soybeans (PHAKPA P2); type: in vivo; details: for PHAKPA (F129L) Disease level (%) P2 at 16 ppm / PHAKPA (F129L) Disease level (%) P2 at 4 ppm: P2 protective, % diseased leaf area; for % PHAKPA (F129L) Disease level P2 at 4 ppm: protective P2, 4 ppm; for % PHAKPA (F129L) Disease level P2 at 4 ppm / % PHAKPA (F129L) Disease level P2 at 16 ppm: soybean rust F129L; for % PHAKPA (F129L) Disease level P2 at 16 ppm: protective P2, 16 ppm
[2] = system: Phakopsora pachyrhizi (F129L); assay: Protective control of soybean rust on soybeans (PHAKPA P6); type: in vivo; details: for PHAKPA (F129L) Disease level (%) P6 at 16 ppm / PHAKPA (F129L) Disease level (%) P6 at 4 ppm: P6 protective, % diseased leaf area; for % PHAKPA (F129L) Disease level P6 at 4 ppm: protective P6, 4 ppm; for % PHAKPA (F129L) Disease level P6 at 4 ppm / % PHAKPA (F129L) Disease level P6 at 16 ppm: soybean rust F129L; for % PHAKPA (F129L) Disease level P6 at 16 ppm: protective P6, 16 ppm

| SMILES | PHAKPA (F129L) Disease level (%) P2 at 16 ppm [1] | % PHAKPA (F129L) Disease level P2 at 4 ppm [1] | % PHAKPA (F129L) Disease level P2 at 16 ppm [1] | PHAKPA (F129L) Disease level (%) P6 at 16 ppm [2] | % PHAKPA (F129L) Disease level P6 at 4 ppm [2] | % PHAKPA (F129L) Disease level P6 at 16 ppm [2] | PHAKPA (F129L) Disease level (%) P2 at 4 ppm [1] | PHAKPA (F129L) Disease level (%) P6 at 4 ppm [2] |
| --- | --- | --- | --- | --- | --- | --- | --- | --- |
| CNC(=O)/C(=N/OC)c1cccc(C)c1CO/N=C(/c1ccc(F)cc1)C(F)F [Ex. 27] | 0% | 5% | 0% | 0% | 32% | 0% |  |  |
| CNC(=O)/C(=N/OC)c1cccc(C)c1CO/N=C(\C)c1ccc(/C(C)=N\OC)cc1OC(F)(F)F [compound 415] |  | 47% | 5% |  | 67% | 11% |  |  |
| CNC(=O)/C(=N/OC)c1cccc(C)c1CO/N=C(\C)c1cccc(-c2ccccc2)c1 [compound 98] |  | 3% | 0% |  | 1% | 0% |  |  |
| CNC(=O)/C(=N/OC)c1cccc(C(F)F)c1CO/N=C(\C)c1cccc(C(F)(F)F)c1 [Ex. 23] |  | 12% | 1% |  | 20% | 1% |  |  |
| CNC(=O)/C(=N/OC)c1cccc(C2CC2)c1CO/N=C(\C)c1cccc(C(F)(F)F)c1 [Ex. 11] |  | 23% | 1% |  | 20% | 0% |  |  |
| CNC(=O)/C(=N/OC)c1cccc(C)c1CO/N=C(\CC(F)(F)F)c1ccccc1 [compound 380] |  | 53% | 5% |  | 60% | 12% |  |  |
| CNC(=O)/C(=N/OC)c1ccccc1CO/N=C(\C)c1ccccc1 [reference compound] |  |  |  |  |  |  | 87% | 100% |
| CNC(=O)/C(=N/OC)c1cccc(C)c1CO/N=C(\C)c1ccc(-c2ccccc2)cc1 [Ex. 113] | 17% | 25% | 26% | 6% | 41% | 25% |  |  |
| CNC(=O)/C(=N/OC)c1cccc(C)c1CO/N=C(\C)c1ccccc1C1(C)CC1 [compound 296] |  | 100% | 40% |  | 100% | 83% |  |  |
| CO/N=C(/C(=O)OC)c1cccc(C)c1CO/N=C(\C)c1cc(C)cc(C(F)(F)F)c1 [compound 65] |  | 93% | 77% |  | 100% | 87% |  |  |
| CO/N=C(/C(=O)OC)c1cccc(C)c1CO/N=C(/c1ccccc1)C(F)F [compound 72] |  | 100% | 87% |  | 93% | 80% |  |  |
| CNC(=O)/C(=N/OC)c1cccc(C)c1CO/N=C(\C)c1ccc(OC(F)(F)F)cc1OC(F)(F)F [compound 349] |  | 97% | 50% |  | 97% | 35% |  |  |
| CNC(=O)/C(=N/OC)c1cccc(C)c1CO/N=C(\C)c1cc(C(F)(F)F)ccc1F [compound 199] |  | 0% | 0% |  | 0% | 0% |  |  |
| COC=C(C(=O)OC)c1cccc(C)c1CON=C(C)c1ccccc1C(F)(F)F [Ex. 244] | 0% | 14% | 0% | 2% | 15% | 2% |  |  |
| CO/N=C(/C(=O)OC)c1cccc(C2CC2)c1CO/N=C(\C)c1cccc(C(F)(F)F)c1 [Ex. 10] |  | 22% | 2% |  | 45% | 3% |  |  |
| CO/N=C(/C(=O)OC)c1cccc(C)c1CO/N=C(\C)c1cccc(-c2noc(C(F)(F)F)n2)c1 [compound 66] |  | 100% | 70% |  | 93% | 87% |  |  |
| CNC(=O)/C(=N/OC)c1cccc(C)c1CO/N=C(\C)c1ccc(Cc2ccccc2)cc1OC(F)(F)F [compound 419] |  | 40% | 18% |  | 60% | 12% |  |  |
| CNC(=O)/C(=N/OC)c1cccc(C)c1CO/N=C(\C)c1cccc(C(C)(C)C)c1 [compound 100] |  | 18% | 0% |  | 25% | 4% |  |  |
| CO/N=C(/C(=O)OC)c1cccc(C)c1CO/N=C(\C)c1ccccc1OC(F)F [compound 253] |  | 100% | 87% |  | 100% | 57% |  |  |
| CCc1ccc(/C(C)=N/OCc2ccccc2/C(=N\OC)C(=O)NC)cc1 [reference compound] |  |  |  |  |  |  | 35% | 83% |
| CO/C=C(/C(=O)OC)c1cccc(C)c1CO/N=C(\C)c1ccc(-c2ccccc2)cc1OC(F)(F)F [compound 433] |  | 83% | 67% |  | 80% | 57% |  |  |
| CNC(=O)/C(=N/OC)c1cccc(C)c1CO/N=C(\C)c1cccc(C(C)C)c1 [compound 105] |  | 18% | 1% |  | 39% | 13% |  |  |
| CNC(=O)/C(=N/OC)c1cccc(C)c1CO/N=C(\C)c1ccc(Cl)c(F)c1OC(F)(F)F [compound 449] |  | 33% | 10% |  | 57% | 9% |  |  |
| CO/N=C(/C(=O)OC)c1cccc(C)c1CO/N=C(\C)c1ccc(C#N)cc1C(F)(F)F [compound 423] |  | 100% | 57% |  | 93% | 53% |  |  |
| CNC(=O)/C(=N/OC)c1cccc(C)c1CO/N=C(\C)c1ccc(C#N)c(C(F)(F)F)c1 [compound 17] |  | 70% | 50% |  | 63% | 57% |  |  |
| CNC(=O)/C(=N/OC)c1cccc(C)c1CO/N=C(\C)c1ccc(Br)cc1C(F)(F)F [compound 258] |  | 32% | 7% |  | 73% | 8% |  |  |
| CO/N=C(/C(=O)OC)c1cccc(C)c1CO/N=C(\C)c1ccc(C)c(C(F)(F)F)c1 [compound 229] |  | 27% | 2% |  | 77% | 6% |  |  |
| CNC(=O)/C(=N/OC)c1cccc(C)c1CO/N=C(\C)c1c(Cl)cccc1C(F)(F)F [compound 290] |  | 92% | 14% |  | 83% | 21% |  |  |
| CNC(=O)/C(=N/OC)c1cccc(C)c1CO/N=C(\C)c1cccc(C#N)c1 [compound 112] |  | 13% | 3% |  | 30% | 9% |  |  |
